Results: patent US20150065509A1 (priority 2012, published 2015)
Values after ≈ are worked out from the molar mass of the structure shown. Read-outs that look alike come from different tables or passages of the source.

Assays:
B. anthracis Sterne = assay: microbe, parasite or virus in culture; assay type: cell-based; details: for MIC: Bacillus anthracis, 16 h, read-out: MIC (Minimum Inhibitory Concentration)
[1] = biological target: dihydrofolate reductase (DHFR) (Bacillus anthracis, UniProt Q81R22); assay: biochemical; assay type: biochemical, B. anthracis Sterne
Chain of dihydrofolate reductase (DHFR) (Q81R22 1-162): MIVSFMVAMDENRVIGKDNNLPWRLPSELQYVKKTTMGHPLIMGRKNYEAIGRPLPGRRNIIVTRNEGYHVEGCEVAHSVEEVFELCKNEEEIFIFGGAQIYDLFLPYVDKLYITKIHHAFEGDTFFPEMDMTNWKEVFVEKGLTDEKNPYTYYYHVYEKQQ

SMILES | MIC (B. anthracis Sterne) [µg/mL] | IC50 [1] [µM] | melting point [°C] | MIC (Minimum Inhibitory Concentration) (B. anthracis Sterne) [µg/mL] | IC50 ([1]; read-out: IC50) [µM]
CCCC1c2ccccc2C=NN1C(=O)/C=C/c1cc(Cc2c(C)nc(N)nc2N)cc(OC)c1OC (centres unmarked) [Compound 10, (E)-3-(5-((2,4-Diamino-6-methylpyrimidin-5-yl)methyl)-2,3-dimethoxyphenyl)-1-(1-propyl-phthalazin-2(1H)-yl)prop-2-en-1-one] | 8000 (≈ 16 mM) | 0.517 | 137 to 138 |  | 
CCCC1c2ccccc2C=NN1C(=O)/C=C/c1cc(Cc2c(N)nc(N)nc2CC)cc(OC)c1OC (centres unmarked) [Compound 11, (E)-3-(5-((2,4-Diamino-6-ethylpyrimidin-5-yl)methyl)-2,3-dimethoxyphenyl)-1-(propyl-phthalazin-2(1H)-yl)prop-2-en-1-one] |  |  |  | 4000 (≈ 7.77 mM) | 17.4
CCCc1nc(N)nc(N)c1Cc1cc(/C=C/C(=O)N2N=Cc3ccccc3C2CCC)c(OC)c(OC)c1 (centres unmarked) [Compound 12, (E)-3-(5-((2,4-Diamino-6-propylpyrimidin-5-yl)methyl)-2,3-dimethoxyphenyl)-1-(1-propyl-phthalazin-2(1H)-yl)prop-2-en-1-one] | 1000 (≈ 1.89 mM) | 17.1 | 140 to 141 |  | 
COc1cc(Cc2c(C)nc(N)nc2N)cc(/C=C/C(=O)N2N=Cc3ccccc3C2C=C(C)C)c1OC (centres unmarked) [Compound 13, (E)-3-(5-((2,4-Diamino-6-methylpyrimidin-5-yl)methyl)-2,3-dimethoxyphenyl)-1-(isobutenylphthalazin-2(1H)-yl)prop-2-en-1-one] |  |  |  | 4000 (≈ 7.8 mM) | 0.102
CCc1nc(N)nc(N)c1Cc1cc(/C=C/C(=O)N2N=Cc3ccccc3C2C=C(C)C)c(OC)c(OC)c1 (centres unmarked) [Compound 14, (E)-3-(5-((2,4-Diamino-6-ethylpyrimidin-5-yl)methyl)-2,3-dimethoxyphenyl)-1-(isobutenylphthalazin-2(1H)-yl)prop-2-en-1-one] |  |  |  | 4000 (≈ 7.6 mM) | 0.181
CCCc1nc(N)nc(N)c1Cc1cc(/C=C/C(=O)N2N=Cc3ccccc3C2C=C(C)C)c(OC)c(OC)c1 (centres unmarked) [Compound 15, (E)-3-(5-((2,4-Diamino-6-propylpyrimidin-5-yl)methyl)-2,3-dimethoxyphenyl)-1-(isobutenylphthalazin-2(1H)-yl)prop-2-en-1-one] |  |  |  | 2000 (≈ 3.7 mM) | 18
